Data published in patent US20250001107A1, “BREATH-POWERED NASAL DEVICES FOR TREATMENT OF TRAUMATIC BRAIN INJURY (TBI), INCLUDING CONCUSSION, AND METHODS” (Oragenics, Inc., priority 2021, published 2025).

Legend:
[1] = preclinical studies of neuroprotective effects; assay type: in vivo
[2] = system: Animal models of concussion; test: animal models of concussion, behavioral pathology; assay type: in vivo
[3] = lipophilicity; assay type: physicochemical
[4] = blood-brain barrier crossing

SMILES: CC(=O)[C@@H]1CCC2C3CCC4=CC(=O)CC[C@H]4C3CC[C@]21C (single isomer, unassigned) [ent-19-norprogesterone, ent-19-norpregn-4-ene-3,20-dione]
- neuroprotective effects compared to related neurosteroids [1]: equivalent, if not superior, neuroprotective effects compared to related neurosteroids
- behavioral pathology associated with brain injury symptoms [2]: reduces the behavioral pathology associated with brain injury symptoms such as memory impairment, anxiety, and motor/sensory performance
- lipophilicity [3]: lipophilic
- crossing of the blood-brain barrier [4]: can easily cross the blood-brain barrier
